Reference: EP0035868A1, “Bicyclic compounds, their production and use” (Takeda Chemical Industries, Ltd., priority 1980, dated 1981)

How the values were obtained:
[1] = biological target: T1, ACE (angiotensin I converting enzyme) (Oryctolagus cuniculus, UniProt P12822); test: Inhibition of angiotensin I converting enzyme (HHL substrate, modified Cushman method); format: biochemical; settings: 37°C, one hour, read-out: Inhibitory Activity on ACE (%); for inhibition at 1 µM: Concentration 1 μM; for inhibition at 10 µM: Concentration 10 μM
T1 sequence (P12822 34-1310): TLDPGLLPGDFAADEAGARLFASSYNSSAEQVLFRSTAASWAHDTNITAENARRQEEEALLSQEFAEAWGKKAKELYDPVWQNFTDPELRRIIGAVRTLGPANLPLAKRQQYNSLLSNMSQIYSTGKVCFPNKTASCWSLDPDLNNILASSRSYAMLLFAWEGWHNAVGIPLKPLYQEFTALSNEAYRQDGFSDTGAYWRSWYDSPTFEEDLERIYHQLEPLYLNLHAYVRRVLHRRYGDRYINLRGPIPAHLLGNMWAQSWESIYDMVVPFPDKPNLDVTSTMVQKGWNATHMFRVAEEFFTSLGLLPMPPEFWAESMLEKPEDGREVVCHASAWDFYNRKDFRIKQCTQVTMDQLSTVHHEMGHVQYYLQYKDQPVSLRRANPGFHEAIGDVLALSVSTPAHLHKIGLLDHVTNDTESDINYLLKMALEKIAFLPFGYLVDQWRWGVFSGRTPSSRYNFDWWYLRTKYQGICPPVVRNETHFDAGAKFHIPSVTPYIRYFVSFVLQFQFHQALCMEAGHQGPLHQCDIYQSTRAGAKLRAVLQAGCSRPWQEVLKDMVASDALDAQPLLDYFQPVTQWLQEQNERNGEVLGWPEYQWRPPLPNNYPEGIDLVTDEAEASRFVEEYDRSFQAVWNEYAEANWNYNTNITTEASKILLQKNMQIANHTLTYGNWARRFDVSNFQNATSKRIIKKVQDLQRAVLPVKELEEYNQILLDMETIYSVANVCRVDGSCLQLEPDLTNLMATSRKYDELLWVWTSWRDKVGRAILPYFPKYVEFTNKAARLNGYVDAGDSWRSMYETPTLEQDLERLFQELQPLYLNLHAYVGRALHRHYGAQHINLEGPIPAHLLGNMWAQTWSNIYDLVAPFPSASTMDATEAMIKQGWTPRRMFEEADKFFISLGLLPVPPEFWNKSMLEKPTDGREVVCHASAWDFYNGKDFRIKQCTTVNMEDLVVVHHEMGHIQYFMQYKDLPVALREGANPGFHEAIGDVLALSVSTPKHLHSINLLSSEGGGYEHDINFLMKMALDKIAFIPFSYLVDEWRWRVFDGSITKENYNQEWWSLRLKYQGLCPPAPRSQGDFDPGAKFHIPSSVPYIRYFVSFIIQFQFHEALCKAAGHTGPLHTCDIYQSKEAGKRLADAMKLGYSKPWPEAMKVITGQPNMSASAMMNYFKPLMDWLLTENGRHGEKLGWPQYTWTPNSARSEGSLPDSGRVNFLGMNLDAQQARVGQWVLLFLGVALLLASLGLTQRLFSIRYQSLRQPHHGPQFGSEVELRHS
Experimental: The experiment was conducted in accordance with a modification of the method described by Cushman et al. [Biochemical Pharmacology, Vol. 20, pl637(1971)].
That is, using hippuryl-L-histidyl-L-leucine(HHL) as the substrate, the ACE (angiotensin I converting enzyme) inhibitory activity was determined in terms of percent inhibition on the amount of hippuric acid produced by ACE when the present compound was added. A solution of the compound of the present invention dissolved in a 0.02 to 2% dimethyl sulfoxide-500 mM potassium phosphate buffer solution (pH 8.3, containing 300 mM sodium chloride) was added to 100 µl of ACE (protein concentration, 20 mg/ml) and 100 µl of 1.25 mM HHL. In this experiment, a potassium phosphate buffer solution containing dimethyl sulfoxide at a concentration equal to that of the test solution was used as a control. After incubating the solution at 37°C for one hour, 150 µl of 1N hydrochloric acid was added to the solution to terminate the reaction. After 1 ml of ethyl acetate was added, the solution was centrifuged at 3000 r.p.m. for 10 minutes. A 0.5 ml aliquot was separated from the ethyl acetate layer and dried at a temperature below 50°C under nitrogen gas streams. The residue was mixed with 5 ml of 1M aqueous sodium chloride and the mixture was subjected to colorimetry at a wavelength of 228 nm.

[2] = test system: Hypertensive Activity of Angiotensin I; test: Effect against hypertensive activity of angiotensin I in rats, oral administration; format: in vivo, Male rats (Sprague-Dawley); settings: 13.8 µM/kg orally, angiotensin I 300 ng/kg i.v., corrected by angiotensin II reaction
Experimental: Male rats (Sprague-Dawley) weighing 250 g to 350 g which were fed under free access to drinking water and feeds were used as experimental animals. The rats were anesthetized with intraperitoneal administration of pentobarbital sodium (50 mg/kg) on the day before the test day and a polyethylene tube was inserted into each of the femoral artery for measurement of blood pressure and the femoral vein for injection of angiotensin I and II, and then the tubes were fixed.
On the test day, an average blood pressure in the control phase was recorded on an electric hemodynamometer (MP-4T model manufactured by Nippon Koden, Japan) and thereafter angiotensin I and then angiotensin II were injected through the femoral vein at a dose of 300 ng/kg and 100 ng/kg respectively, to measure the hypertensive activity. Then, 13.8 µM/kg of the compound of this invention was administered orally as an aqueous solution or an aqueous gum arabic suspension, and 20, 60 and 120 minutes after the administration, angiotensin I and II were injected repeatedly to trace hypertensive reactions. In calculating the percent inhibition to the hypertensive acitivity of angiotensin I, the-percent inhibitory value was corrected based on the variation with time in the hypertensive reaction by angiotensin II.

Row | SMILES | inhibition at 1 µM [1] | inhibition at 10 µM [1] | Percent Inhibition (%) against Hypertensive Reaction by Angiotensin I ([2]; After 20 min.) | Percent Inhibition (%) against Hypertensive Reaction by Angiotensin I ([2]; After 60 min.) | Percent Inhibition (%) against Hypertensive Reaction by Angiotensin I ([2]; After 120 min.)
1 | C[C@H](CSC(=O)c1ccccc1)C(=O)N(CC(=O)O)C1Cc2ccccc2C1 [Example 38, N-(3-benzoylthio-2(S)-methylpropionyl)-N-(2-indanyl)glycine] | 86% | 98% |  |  | 
2 | COc1ccc2c(c1OC)CCCC2N(CC(=O)O)C(=O)C(C)CSC(C)=O (centres unmarked) [Example 18] |  |  | 83% | 70% | 72%
3 | CC(=O)SCC(C)C(=O)N(CC(=O)O)C1Cc2ccccc2C1 (centres unmarked) [Example 35, N-(3-acetylthio-2-methylpropionyl)-N-(2-indanyl)glycine] |  |  | 100% | 100% | 91%
4 | COc1cc2c(cc1OC)C(N(CC(=O)O)C(=O)C(C)CSC(C)=O)CC2 (centres unmarked) [Example 8, N-(3-Acetylthio-2-methylpropionyl)-N-(5,6-dimethoxy-1-indanyl)glycine] |  |  | 86% | 94% | 91%
5 | CC(=O)SCC(C)C(=O)N(CC(=O)O)C1CCc2ccccc21 (centres unmarked) [Example 3] |  |  | 95% | 90% | 83%
6 | COc1ccc2c(c1)C(N(CC(=O)O)C(=O)C(C)CSC(C)=O)CC2 (stereo not drawn) [Example 1, N-(3-acetylthio-2-methylpropionyl)-N-(6-methoxy-l-indanyl)-glycine] |  |  | 96% | 94% | 91%
7 | COc1cc2c(cc1OC)CC(N(CC(=O)O)C(=O)C(C)CSC(C)=O)C2 (centres unmarked) [Example 41, N-(3-acetylthio-2-methylpropionyl)-N-(5,6-dimethoxy-2-indanyl)glycine] |  |  | 89% | 93% | 92%
8 | CC(=O)SCC(C)C(=O)N(CC(=O)O)C1CCc2cc3c(cc21)OCO3 (centres unmarked) [Example 9, N-(3-acetylthio-2-methylpropionyl)-N-(5,6-methylenedioxy-I-indanyl)glycine] |  |  | 81% | 78% | 59%

Continued, in another order:

Row | inhibition at 1 µM [1] | inhibition at 10 µM [1] | SMILES | Percent Inhibition (%) against Hypertensive Reaction by Angiotensin I ([2]; After 20 min.) | Percent Inhibition (%) against Hypertensive Reaction by Angiotensin I ([2]; After 60 min.) | Percent Inhibition (%) against Hypertensive Reaction by Angiotensin I ([2]; After 120 min.)
9 | 74% | 99% | COc1cc2c(cc1OC)C(N(CC(=O)O)C(=O)C(C)CS)CC2 (stereo not drawn) [Example 45, N-(3-mercapto-2-methylpropionyl)-N-(5,6-dimethoxy-l-indanyl)glycine] |  |  | 
10 | 19% | 66% | CC(=O)SCC(C)C(=O)N(CC(=O)O)C1CCOc2ccc(Cl)cc21 (centres unmarked) [Example 21] |  |  | 
11 | 45% | 88% | CC(=O)SCC(C)C(=O)N(CC(=O)O)C1CCc2cc(O)ccc21 (centres unmarked) [Example 6] |  |  | 
12 | 32% | 75% | COc1cc2c(cc1OC)C(N(CC(=O)O)C(=O)C(CSC(C)=O)CSC(C)=O)CC2 (centres unmarked) [Example 43, N-(3-acetylthio-2-acetylthiomethylpropionyl)-N-(5,6-dimethoxy-1-indanyl)glycine] |  |  | 
13 | 73% | 95% | CC(=O)SCC(C)C(=O)N(CC(=O)O)C1CCc2ccccc2C1 (centres unmarked) [Example 32, N-(3-acetylthio-2-methylpropionyl)-N-(1,2,3,4-tetrahydro-2-naphthyl)glycine] |  |  | 
14 | 77% | 92% | CC(=O)SCCC(=O)N(CC(=O)O)C1Cc2ccccc2C1 [Example 40, N-(3-acetylthiopropionyl)-N-(2-indanyl) glycine] |  |  | 
